Where two headings read alike, the source gives them in different places.
Tests used:
[1] = system: K. pneumoniae NVT1001 and its GyrA/ParC and ΔramR mutants; assay: Etest MIC of quinolones, GyrA/ParC mutations and AcrAB-TolC overexpression (ΔramR) (Table 10); assay type: cell-based; settings: Klebsiella pneumoniae
Text: DNA fragments of the entire gyrA and parC sequences along with their flanking regions were amplified from K. pneumoniae strain NVT1001 using PCR with specific primer pairs and then cloned into the plasmid pUT-KB. The QuikChange site-directed mutagenesis kit (Stratagene) was used to generate mutations in the gyrA and parC genes in the plasmid using the methods described by the manufacturer. For homologous recombination, plasmids containing mutations in the gyrA or parC gene were transformed into E. coli S17-1 λpir^23 via electroporation and mobilized into K. pneumoniae strain NVT1001 via conjugation. Single-crossover strains were selected from BIND plates supplemented with kanamycin (50 mg/L), as the growth of non-K. pneumoniae contaminants is suppressed on BIND plates.^24 After the kanamycin-resistant transconjugants were selected, the insertion of plasmids was verified via PCR. After incubation in 20 mL BHI broth for 6 hours at 37° C. in the absence of kanamycin, the fully grown cultures were spread onto LB agar plates supplemented with 10% sucrose. After the double crossover occurred, the sucrose-resistant and kanamycin-susceptible colonies were selected, and the gene mutations were confirmed via PCR.
The MICs of antibiotics were determined using the Etest (Biodisk AB, Sweden) according to the manufacturer's instructions. The MICs from the Etest, which fall between standard two-fold dilutions, were rounded up to the next highest two-fold value. The MICs of ceftazidime and cefotaxime against K. pneumoniae NVT1001 harbouring the pACYC177 plasmid with blaOXA-48 were further determined using a broth microdilution test according to the recommendations of the CLSI,^25 and the results were interpreted according to the breakpoints established by the CLSI in 2017.^25 Meanwhile, due to the lack of CLSI breakpoints in 2016 and 2017, the results for cephalothin were interpreted according to the breakpoints established by the CLSI in 2015,^26 and the results for moxifloxacin were interpreted according to the breakpoints established by the EUCAST in 2017.^27

[2] = system: K. pneumoniae NVT1001 strains with ESBL or AmpC β-lactamase plasmids; assay: Etest MIC of β-lactams, OmpK35/36 loss, ΔramR and/or extended-spectrum β-lactamase and AmpC β-lactamase (Table 8); assay type: cell-based, Klebsiella pneumoniae; settings: Klebsiella pneumoniae
Summary of the method: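 Cloned resistance genes in pACYC177 or pACYC184 were electroporated into K. pneumoniae NVT1001. MICs were determined by Etest and rounded up to the next two-fold value. Ceftazidime and cefotaxime against the blaOXA-48 construct were also tested by CLSI broth microdilution, with breakpoints from CLSI 2017 (cephalothin CLSI 2015, moxifloxacin EUCAST 2017).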

C[C@H]1COc2c(N3CCN(C)CC3)c(F)cc3c(=O)c(C(=O)O)cn1c23 [Levofloxacin, levofloxacin]
MIC ([1]; D87N mutant (GyrA D87N)): 0.5 µg/mL
MIC ([1]; D87N/S80I mutant): 0.5 µg/mL
MIC ([1]; NVT1001, read-out: MIC): 0.06 µg/mL
MIC ([1]; S80I mutant (ParC S80I)): 0.125 µg/mL
MIC ([1]; S83F mutant (GyrA S83F)): 0.5 µg/mL
MIC ([1]; S83F/D87N mutant): 0.5 µg/mL
MIC ([1]; S83F/D87N/S80I mutant): 8 µg/mL
MIC ([1]; S83F/S80I mutant): 0.5 µg/mL
MIC ([1]; S83I mutant (GyrA S83I)): 0.5 µg/mL
MIC ([1]; S83I/D87N mutant): 1 µg/mL
MIC ([1]; S83I/D87N/S80I mutant): 8 µg/mL
MIC ([1]; S83I/S80I mutant): 2 µg/mL
MIC ([1]; S83L mutant (GyrA S83L)): 0.5 µg/mL
MIC ([1]; S83L/D87N mutant): 0.5 µg/mL
MIC ([1]; S83L/D87N/S80I mutant): 8 µg/mL
MIC ([1]; S83L/S80I mutant): 1 µg/mL
MIC ([1]; S83Y mutant (GyrA S83Y)): 0.5 µg/mL
MIC ([1]; S83Y/D87N mutant): 0.5 µg/mL
MIC ([1]; S83Y/D87N/S80I mutant): 4 µg/mL
MIC ([1]; S83Y/S80I mutant): 1 µg/mL
MIC ([1]; ΔramR mutant): 1 µg/mL
MIC ([1]; ΔramR/S83I mutant): 16 µg/mL
MIC ([1]; ΔramR/S83I/D87N/S80I mutant): > 32 µg/mL
MIC ([1]; ΔramR/S83I/S801 mutant): > 32 µg/mL

CCn1cc(C(=O)O)c(=O)c2cc(F)c(N3CCNCC3)cc21 [Norfloxacin, norfloxacin]
MIC ([1]; D87N mutant (GyrA D87N)): 2 µg/mL
MIC ([1]; D87N/S80I mutant): 2 µg/mL
MIC ([1]; NVT1001, read-out: MIC): 0.25 µg/mL
MIC ([1]; S80I mutant (ParC S80I)): 0.25 µg/mL
MIC ([1]; S83F mutant (GyrA S83F)): 2 µg/mL
MIC ([1]; S83F/D87N mutant): 2 µg/mL
MIC ([1]; S83F/D87N/S80I mutant): 32 µg/mL
MIC ([1]; S83F/S80I mutant): 8 µg/mL
MIC ([1]; S83I mutant (GyrA S83I)): 2 µg/mL
MIC ([1]; S83I/D87N mutant): 2 µg/mL
MIC ([1]; S83I/D87N/S80I mutant): 64 µg/mL
MIC ([1]; S83I/S80I mutant): 16 µg/mL
MIC ([1]; S83L mutant (GyrA S83L)): 2 µg/mL
MIC ([1]; S83L/D87N mutant): 2 µg/mL
MIC ([1]; S83L/D87N/S80I mutant): 64 µg/mL
MIC ([1]; S83L/S80I mutant): 8 µg/mL
MIC ([1]; S83Y mutant (GyrA S83Y)): 2 µg/mL
MIC ([1]; S83Y/D87N mutant): 2 µg/mL
MIC ([1]; S83Y/D87N/S80I mutant): 32 µg/mL
MIC ([1]; S83Y/S80I mutant): 8 µg/mL
MIC ([1]; ΔramR mutant): 2 µg/mL
MIC ([1]; ΔramR/S83I mutant): 8 µg/mL
MIC ([1]; ΔramR/S83I/D87N/S80I mutant): > 256 µg/mL
MIC ([1]; ΔramR/S83I/S801 mutant): 128 µg/mL

CO/N=C(\C(=O)N[C@@H]1C(=O)N2C(C(=O)O)=C(COC(N)=O)CS[C@H]12)c1ccco1 [Cefuroxime]
MIC ([2]; CMY-2 on pACYC177, WT (NVT1001), read-out: MIC): 256 µg/mL
MIC ([2]; CMY-2 on pACYC177, Δ35 (ΔompK35 mutant)): 256 µg/mL
MIC ([2]; CMY-2 on pACYC177, Δ35/36 (ΔompK35/36 mutant)): > 256 µg/mL
MIC ([2]; CMY-2 on pACYC177, Δ36 (ΔompK36 mutant)): > 256 µg/mL
MIC ([2]; CMY-2 on pACYC177, ΔramR mutant): > 256 µg/mL
MIC ([2]; CMY-2 on pACYC177, ΔramRΔ35 (ΔramRΔompK35 mutant)): > 256 µg/mL
MIC ([2]; CMY-2 on pACYC177, ΔramRΔ35/36 (ΔramRΔompK35/36 mutant)): > 256 µg/mL
MIC ([2]; CMY-2 on pACYC177, ΔramRΔ36 (ΔramRΔompK36 mutant)): > 256 µg/mL
MIC ([2]; CTX-M-14 on pACYC177, WT (NVT1001), read-out: MIC): > 256 µg/mL
MIC ([2]; CTX-M-14 on pACYC177, Δ35 (ΔompK35 mutant)): > 256 µg/mL
MIC ([2]; CTX-M-14 on pACYC177, Δ35/36 (ΔompK35/36 mutant)): > 256 µg/mL
MIC ([2]; CTX-M-14 on pACYC177, Δ36 (ΔompK36 mutant)): > 256 µg/mL
MIC ([2]; CTX-M-14 on pACYC177, ΔramR mutant): > 256 µg/mL
MIC ([2]; CTX-M-14 on pACYC177, ΔramRΔ35 (ΔramRΔompK35 mutant)): > 256 µg/mL
MIC ([2]; CTX-M-14 on pACYC177, ΔramRΔ35/36 (ΔramRΔompK35/36 mutant)): > 256 µg/mL
MIC ([2]; CTX-M-14 on pACYC177, ΔramRΔ36 (ΔramRΔompK36 mutant)): > 256 µg/mL
MIC ([2]; CTX-M-15 on pACYC177, WT (NVT1001), read-out: MIC): > 256 µg/mL
MIC ([2]; CTX-M-15 on pACYC177, Δ35 (ΔompK35 mutant)): > 256 µg/mL
MIC ([2]; CTX-M-15 on pACYC177, Δ35/36 (ΔompK35/36 mutant)): > 256 µg/mL
MIC ([2]; CTX-M-15 on pACYC177, Δ36 (ΔompK36 mutant)): > 256 µg/mL
MIC ([2]; CTX-M-15 on pACYC177, ΔramR mutant): > 256 µg/mL
MIC ([2]; CTX-M-15 on pACYC177, ΔramRΔ35 (ΔramRΔompK35 mutant)): > 256 µg/mL
MIC ([2]; CTX-M-15 on pACYC177, ΔramRΔ35/36 (ΔramRΔompK35/36 mutant)): > 256 µg/mL
MIC ([2]; CTX-M-15 on pACYC177, ΔramRΔ36 (ΔramRΔompK36 mutant)): > 256 µg/mL
MIC ([2]; DHA-1-AmpR on pACYC177, WT (NVT1001), read-out: MIC): > 256 µg/mL
MIC ([2]; DHA-1-AmpR on pACYC177, Δ35 (ΔompK35 mutant)): > 256 µg/mL
MIC ([2]; DHA-1-AmpR on pACYC177, Δ35/36 (ΔompK35/36 mutant)): > 256 µg/mL
MIC ([2]; DHA-1-AmpR on pACYC177, Δ36 (ΔompK36 mutant)): > 256 µg/mL
MIC ([2]; DHA-1-AmpR on pACYC177, ΔramR mutant): > 256 µg/mL
MIC ([2]; DHA-1-AmpR on pACYC177, ΔramRΔ35 (ΔramRΔompK35 mutant)): > 256 µg/mL
MIC ([2]; DHA-1-AmpR on pACYC177, ΔramRΔ35/36 (ΔramRΔompK35/36 mutant)): > 256 µg/mL
MIC ([2]; DHA-1-AmpR on pACYC177, ΔramRΔ36 (ΔramRΔompK36 mutant)): > 256 µg/mL
MIC ([2]; SHV-12 on pACYC177, WT (NVT1001), read-out: MIC): 64 µg/mL
MIC ([2]; SHV-12 on pACYC177, Δ35 (ΔompK35 mutant)): 64 µg/mL
MIC ([2]; SHV-12 on pACYC177, Δ35/36 (ΔompK35/36 mutant)): > 256 µg/mL
MIC ([2]; SHV-12 on pACYC177, Δ36 (ΔompK36 mutant)): 128 µg/mL
MIC ([2]; SHV-12 on pACYC177, ΔramR mutant): 256 µg/mL
MIC ([2]; SHV-12 on pACYC177, ΔramRΔ35 (ΔramRΔompK35 mutant)): 128 µg/mL
MIC ([2]; SHV-12 on pACYC177, ΔramRΔ35/36 (ΔramRΔompK35/36 mutant)): > 256 µg/mL
MIC ([2]; SHV-12 on pACYC177, ΔramRΔ36 (ΔramRΔompK36 mutant)): > 256 µg/mL
MIC ([2]; no supplemental plasmid, WT (NVT1001), read-out: MIC): 4 µg/mL
MIC ([2]; no supplemental plasmid, Δ35 (ΔompK35 mutant)): 8 µg/mL
MIC ([2]; no supplemental plasmid, Δ35/36 (ΔompK35/36 mutant)): 32 µg/mL
MIC ([2]; no supplemental plasmid, Δ36 (ΔompK36 mutant)): 16 µg/mL
MIC ([2]; no supplemental plasmid, ΔramR mutant): 32 µg/mL
MIC ([2]; no supplemental plasmid, ΔramRΔ35 (ΔramRΔompK35 mutant)): 64 µg/mL
MIC ([2]; no supplemental plasmid, ΔramRΔ35/36 (ΔramRΔompK35/36 mutant)): 128 µg/mL
MIC ([2]; no supplemental plasmid, ΔramRΔ36 (ΔramRΔompK36 mutant)): > 256 µg/mL
